7 compounds from US12295970B2, “Imidazoquinoline compounds and prodrugs thereof” (UNIVERSITY OF KANSAS, priority 2019, dated 2025) can be followed below.

By EC50 is commonly meant the concentration giving half of the maximal effect.

Holding throughout (format): cell-based
One assay addresses T1, hTLR8 (Homo sapiens, UniProt Q9NR97).
T1 construct: host or cells: HEK293 (HEK-Blue hTLR8)
T1 sequence (Q9NR97 27-1041): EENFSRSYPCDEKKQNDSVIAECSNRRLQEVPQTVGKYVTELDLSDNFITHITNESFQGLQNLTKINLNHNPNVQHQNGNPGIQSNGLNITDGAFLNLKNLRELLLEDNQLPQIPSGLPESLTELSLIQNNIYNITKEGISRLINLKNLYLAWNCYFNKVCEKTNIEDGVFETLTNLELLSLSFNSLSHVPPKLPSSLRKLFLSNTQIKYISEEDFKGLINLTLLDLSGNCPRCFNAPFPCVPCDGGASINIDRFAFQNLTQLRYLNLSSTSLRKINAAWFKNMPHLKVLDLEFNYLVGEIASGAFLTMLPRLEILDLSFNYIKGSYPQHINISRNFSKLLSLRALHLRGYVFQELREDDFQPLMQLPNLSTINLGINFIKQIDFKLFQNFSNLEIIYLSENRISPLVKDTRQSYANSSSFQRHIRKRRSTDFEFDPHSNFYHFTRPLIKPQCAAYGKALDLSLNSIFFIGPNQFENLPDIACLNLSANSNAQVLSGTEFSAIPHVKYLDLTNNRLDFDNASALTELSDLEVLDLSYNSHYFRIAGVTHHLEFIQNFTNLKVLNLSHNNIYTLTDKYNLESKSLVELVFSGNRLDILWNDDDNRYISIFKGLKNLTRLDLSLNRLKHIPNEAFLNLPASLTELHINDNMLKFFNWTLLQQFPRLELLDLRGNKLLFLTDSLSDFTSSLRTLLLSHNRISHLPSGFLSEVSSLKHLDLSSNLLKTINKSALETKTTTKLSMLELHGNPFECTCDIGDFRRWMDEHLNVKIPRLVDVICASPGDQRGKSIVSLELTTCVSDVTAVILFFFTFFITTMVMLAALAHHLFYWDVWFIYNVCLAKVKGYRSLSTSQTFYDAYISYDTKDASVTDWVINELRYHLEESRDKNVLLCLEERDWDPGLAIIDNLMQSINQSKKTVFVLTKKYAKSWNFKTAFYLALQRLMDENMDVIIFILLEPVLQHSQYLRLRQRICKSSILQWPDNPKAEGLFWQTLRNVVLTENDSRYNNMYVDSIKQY
As to the kind of experiment: SEAP reporter assay for hTLR-8 activity (HEK-Blue hTLR8 cells). The settings on record: for EC50: ± SD, hTLR8 transfected HEK-Blue cells, Null subtracted, three independent measurements, 12 hours, >100 = no activity observed at 100 μM, read-out: EC50 TLR8. Here is the method:
(§1) TLR activation induces NF-κB production and subsequent SEAP secretion, which is measured using HEK-Detection media (InvivoGen) containing a colorimetric substrate for SEAP (UV-Vis, 637 nm).
(§2) The experiments followed manufacturer protocol as follows: SEAP levels were measured via absorbance at 637 nm using HEK-Blue Detection cell culture medium (InvivoGen), which contains a SEAP-specific colorimetric substrate. Compound stock solutions were first diluted in sterile DMSO at a concentration of 10 mM. Lower concentrations were prepared by serial dilution of the initial 10 mM stock samples into sterile DMSO and these solutions (22 μL) were subsequently diluted into sterile H2O (198 μL) using a BioTek Precision XS pipetting system. HEK-Blue hTLR7, HEK-Blue hTLR8, Null 1−k, and Null 1 cell suspensions in sterile HEK-Blue Detection medium were prepared at a density of 220,000 cells per mL. Clear bottom, 96-well tissue culture treated plates (Corning) were seeded with hTLR7 and Null 1−k or hTLR8 and Null 1 cell suspensions (180 μL/well), after which 20 μL of the various sample concentrations in 10% v/v DMSO/H2O were added (20 μL) in quadruplicate wells to yield the desired testing concentration in 1% v/v DMSO cell suspension. Plates were incubated at 37° C. and 5% CO2 in the dark. Absorbance measurements were taken at 637 nm at 12 hours, 4 replicates per concentration point, per cell line (hTLR7, hTLR8, Null 1−k, Null 1). Three independent measurements on different days were performed for each analog.
(§3) Corresponding well absorbance values for each concentration tested were averaged with respect to days tested, and the average relative NF-κB induction (UV-Vis, 637 nm) of the null cell lines (Null 1-k or Null 1) were subtracted from the respective average TLR expressing cell line (hTLR7 or hTLR8) absorbance averages. […] The three independent, normalized averages for each analog were then pooled, and the data was fit using the Hill-Slope model (GraphPad Prism v7.0) using the non-linear fit from the [Agonist] vs. response—Variable Slope (four parameters) with a hill slope constrained to less than 3.

In assay [1] the test system is canine peripheral blood mononuclear cells (cPBMCs). In words: Cytokine production in canine PBMCs by ELISA (Example 2). The settings on record: for Cytokine IFNg / Cytokine IL-2 / Cytokine IL-6 / Cytokine IL-10 / Cytokine IL-12 / Cytokine TNFa: ± SD, 29 hours, ELISA, triplicate. Here is the method: The imidazoquinolines were further screened for cytokine production in canine peripheral blood mononuclear cells (cPBMCs). […] TNFα and IL-12 were chosen as they are typically seen in a Th-1 cytokine response.
Peripheral blood from a healthy canine donor was obtained with appropriate informed consent of the owner and under approved institutional guidelines. Blood (8 mL per tube) was drawn via sterile venipuncture into a BD Vacutainer cell preparation tube containing sodium heparin (BD Biosciences). PBMCs were isolated within one hour following procurement by density gradient centrifugation according to the manufacturer protocol and resuspended to 2.22×10^6 cells/mL in sterile RPMI 1640 medium with L-glutamine (Gibco) supplemented with 100 U/mL penicillin, 100 μg/mL streptomycin (Corning) and 10% (v/v) heat-inactivated Fetalgro (RMBIO). Corning 3917, 96-well tissue culture treated plates were seeded with the PBMC suspension (180 μL/well), 20 μL of the serially diluted TLR agonists were added in triplicate to yield the desired concentrations in a 1% (v/v) DMSO cell suspension. Cells were incubated at 37° C. in 5% CO2 for 9 hours (FIGS. 3A-3D) or 29 hours (Table 2) after which supernatants were removed and frozen at −80° C. Cytokine secretion levels were measured by ELISA (Duoset, R&D Systems) according to the manufacturer protocol. Samples and standards (n=3) were thawed and plated onto a Maxisorp flat-bottom, 384-well plate (Thermo Scientific) using a BioTek Precision XS pipetting system. Cytokine concentrations were determined by a hyperbolic or four-parameter logistic non-linear regression of the recombinant standards and subsequent interpolation using Graphpad Prism 7.0.
In general terms: An ELISA detects its analyte on a solid surface through an enzyme-linked reagent.

Another assay concerns the target T2, hTLR7 (Homo sapiens, UniProt Q9NYK1).
T2 construct: host or cells: HEK293 (HEK-Blue hTLR7)
T2 sequence (Q9NYK1 27-1049): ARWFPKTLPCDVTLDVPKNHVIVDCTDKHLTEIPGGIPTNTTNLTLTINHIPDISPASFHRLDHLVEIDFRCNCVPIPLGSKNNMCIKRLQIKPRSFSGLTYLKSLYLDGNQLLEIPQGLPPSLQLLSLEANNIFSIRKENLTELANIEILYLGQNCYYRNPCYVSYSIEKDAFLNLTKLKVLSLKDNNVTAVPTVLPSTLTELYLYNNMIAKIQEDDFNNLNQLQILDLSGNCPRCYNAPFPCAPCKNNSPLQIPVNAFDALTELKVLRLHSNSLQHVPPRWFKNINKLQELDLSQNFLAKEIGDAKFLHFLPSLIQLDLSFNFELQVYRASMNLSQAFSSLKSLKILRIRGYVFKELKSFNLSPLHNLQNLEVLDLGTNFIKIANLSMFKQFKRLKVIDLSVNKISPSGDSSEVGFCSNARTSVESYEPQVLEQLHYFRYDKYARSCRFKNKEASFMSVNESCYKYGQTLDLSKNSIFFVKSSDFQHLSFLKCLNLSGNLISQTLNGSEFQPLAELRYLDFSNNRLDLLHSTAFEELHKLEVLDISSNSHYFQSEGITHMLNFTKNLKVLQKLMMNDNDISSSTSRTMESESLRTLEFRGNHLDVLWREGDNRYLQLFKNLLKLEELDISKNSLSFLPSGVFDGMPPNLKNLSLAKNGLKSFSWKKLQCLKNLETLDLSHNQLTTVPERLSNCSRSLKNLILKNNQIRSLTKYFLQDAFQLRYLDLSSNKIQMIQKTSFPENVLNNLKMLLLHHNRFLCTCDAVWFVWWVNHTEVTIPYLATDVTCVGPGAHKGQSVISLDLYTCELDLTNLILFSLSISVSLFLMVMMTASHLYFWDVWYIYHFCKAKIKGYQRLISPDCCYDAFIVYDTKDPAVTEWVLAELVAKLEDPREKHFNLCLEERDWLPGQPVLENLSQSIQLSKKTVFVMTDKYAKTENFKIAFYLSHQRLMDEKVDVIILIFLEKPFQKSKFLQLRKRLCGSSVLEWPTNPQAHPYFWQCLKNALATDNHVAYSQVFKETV
As to the kind of experiment: SEAP reporter assay for hTLR-7 activity (HEK-Blue hTLR7 cells). The settings on record: for EC50: ± SD, hTLR7 transfected HEK-Blue cells, Null subtracted, three independent measurements, 12 hours, read-out: EC50 TLR7. Here is the method: as §1, §2, §3
In general terms: Reporter assays use an easily measured gene product as a stand-in for the process of interest.

On to `CCCCc1nc2c(N)nc3cc(Cl)ccc3c2n1CC(C)C` [Compound 6, 4-Amino-2-butyl-7-chloro-1-(2-methylpropyl)-1H-imidazo[4,5-c]quinoline], for which the EC50 at hTLR8 was > 100000 nM. In assay [1] (20 μM), the “Cytokine IFNg” value worked out at 7 ± 1 pg/mL, the “Cytokine IL-2” value was 63 ± 44 pg/mL, the “Cytokine IL-6” value is given as 240 ± 67 pg/mL and the “Cytokine IL-10” value is on record as 14 ± 4 pg/mL. Besides, in assay [1] (20 μM), the “Cytokine IL-12” value is 760 ± 50 pg/mL and the “Cytokine TNFa” value was found to be 91 ± 20 pg/mL. In addition, the EC50 on hTLR7 was determined as 300 ± 20 nM.

Consider `CC(C)Cn1cnc2c(N)nc3ccccc3c21` [Compound 1, imiquimod, reference compound], for which, at hTLR8, the “agonist for TLR8 receptor (in words)” value was “agonists” and the EC50 came out at 25000 ± 3000 nM. Besides, on hTLR7, the “agonist for TLR7 receptor (in words)” value is given as “agonists” and the EC50 was 6800 ± 800 nM.

Turning to `CCCCc1nc2c(N)nc3cc(Cl)ccc3c2n1CC(C)(C)O` [Compound 8, 4-Amino-2-butyl-7-chloro-1-(2-hydroxy-2-methylpropyl)-1H-imidazo[4,5-c]quinoline], the concentration for a half-maximal effect (EC50) on hTLR8 is 1500 ± 200 nM. Moreover, in assay [1] (20 μM), the “Cytokine IFNg” value was 13 ± 10 pg/mL, the “Cytokine IL-2” value was 55 ± 30 pg/mL, the “Cytokine IL-6” value was found to be 230 ± 44 pg/mL and the “Cytokine IL-10” value stood at 7 ± 6 pg/mL. Also, in assay [1] (20 μM), the “Cytokine IL-12” value amounted to 1700 ± 330 pg/mL and the “Cytokine TNFa” value worked out at 22 ± 4 pg/mL. At hTLR7, the EC50 worked out at 84 ± 7 nM.

For the compound `CCOCc1nc2c(N)nc3cc(Cl)ccc3c2n1CC(C)C` [Compound 7, 4-Amino-7-chloro-2-(ethoxymethyl)-1-(2-methylpropyl)-1H-imidazo[4,5-c]quinoline], the EC50 on hTLR8 is > 100000 nM. For the same compound, in assay [1] (20 μM), the “Cytokine IFNg” value was 5 ± 5 pg/mL, the “Cytokine IL-2” value was 50 ± 22 pg/mL, the “Cytokine IL-6” value was determined as 280 ± 81 pg/mL and the “Cytokine IL-10” value amounted to 20 ± 1 pg/mL. Besides, in assay [1] (20 μM), the “Cytokine IL-12” value worked out at 781 ± 40 pg/mL and the “Cytokine TNFa” value is listed as 114 ± 25 pg/mL. Further, the EC50 on hTLR7 was 910 ± 90 nM.

Consider `CCOCc1nc2c(N)nc3cc(Cl)ccc3c2n1CC(C)(C)O` [Compound 9, 4-Amino-7-chloro-2-(ethoxymethyl)-1-(2-hydroxy-2-methylpropyl)-1H-imidazo[4,5-c]quinoline], for which the EC50 on hTLR8 came out at 4900 ± 600 nM. Moreover, in assay [1] (20 μM), the “Cytokine IFNg” value was 16 ± 2 pg/mL, the “Cytokine IL-2” value is reported as 76 ± 59 pg/mL, the “Cytokine IL-6” value is given as 320 ± 76 pg/mL and the “Cytokine IL-10” value turned out to be 12 ± 3 pg/mL. Moreover, in assay [1] (20 μM), the “Cytokine IL-12” value is 1900 ± 130 pg/mL and the “Cytokine TNFa” value worked out at 70 ± 8 pg/mL. The EC50 on hTLR7 came to 630 ± 30 nM.

On to `CCCCc1nc2c(N)nc3cc(O)ccc3c2n1CC(C)C` [Compound 14, 4-Amino-2-butyl-7-hydroxy-1-(2-methylpropyl)-1H-imidazo[4,5-c]quinoline], for which, in assay [1], the “cytokine induction (in words)” value is listed as “barely potentiates any cytokine induction”. Further, in assay [1] (20 μM), the “IL-12 response (in words)” value is “one of the lowest IL-12 responses”, the “TNFα response (in words)” value was “one of the highest TNFα responses”, the “Cytokine IFNg” value is on record as 9 ± 8 pg/mL and the “Cytokine IL-2” value is on record as 79 ± 19 pg/mL. In assay [1] (20 μM), the “Cytokine IL-6” value is given as 330 ± 92 pg/mL, the “Cytokine IL-10” value is given as 17 ± 3 pg/mL, the “Cytokine IL-12” value came out at 102 ± 65 pg/mL and the “Cytokine TNFa” value was 270 ± 70 - pg/mL. At hTLR7, the EC50 was 73 ± 5 nM.

Regarding `CCCCc1nc2c(N)nc3cc(C#N)ccc3c2n1CC(C)(C)O` [Compound 12, 4-Amino-2-butyl-7-carbonitrile-1-(2-hydroxy-2-methylpropyl)-1H-imidazo[4,5-c]quinoline], on hTLR8, the EC50 came out at 3900 ± 200 nM. Moreover, in assay [1] (20 μM), the “Cytokine IFNg” value is listed as 12 ± 4 pg/mL, the “Cytokine IL-2” value came out at 45 ± 22 pg/mL, the “Cytokine IL-6” value was determined as 290 ± 77 pg/mL and the “Cytokine IL-10” value is 14 ± 3 pg/mL. In addition, in assay [1] (20 μM), the “Cytokine IL-12” value is 418 ± 72 pg/mL and the “Cytokine TNFa” value was determined as 44 ± 10 pg/mL. Moreover, the EC50 on hTLR7 was determined as 790 ± 230 nM.
